Reference: PubChem BioAssay AID1845198 (Molecular Pharmacology Branch, DTP, NCI, 2023)

Tested on: 425362-245-T-J1 tumor spheroids, viability % test/control
Assay: Anticancer human tumor 425362-245-T-J1 patient-derived melanoma cell line growth inhibition
Settings: spheroids with HUVEC and MSC; for IC50: curve of first compound; for viability, T/C: stronger effect = lower value
Outline: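 Single agents and combinations were tested on spheroids built from tumor cells plus HUVEC and hMSC, at half-log dilutions starting at or near clinical Cmax, else 10 microM; final DMSO 0.25% (v/v).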

[1] = second compound 0.003 µM, first compound 0.0316 µM
[2] = second compound 0.003 µM, first compound 0.1 µM
[3] = second compound 0.003 µM, first compound 0.316 µM
[4] = second compound 0.003 µM, first compound 1 µM
[5] = second compound 0.003 µM, first compound 3.16 µM
[6] = second compound 0.003 µM, first compound 10 µM
[7] = second compound 0.00949 µM, first compound 0.0316 µM
[8] = second compound 0.00949 µM, first compound 0.1 µM
[9] = second compound 0.00949 µM, first compound 0.316 µM
[10] = second compound 0.00949 µM, first compound 1 µM
[11] = second compound 0.00949 µM, first compound 3.16 µM
[12] = second compound 0.00949 µM, first compound 10 µM
[13] = second compound 0.03 µM, first compound 0.0316 µM
[14] = second compound 0.03 µM, first compound 0.1 µM
[15] = second compound 0.03 µM, first compound 0.316 µM
[16] = second compound 0.03 µM, first compound 1 µM
[17] = second compound 0.03 µM, first compound 3.16 µM
[18] = second compound 0.03 µM, first compound 10 µM
[19] = second compound 0.0949 µM, first compound 0.0316 µM
[20] = second compound 0.0949 µM, first compound 0.1 µM
[21] = second compound 0.0949 µM, first compound 0.316 µM
[22] = second compound 0.0949 µM, first compound 1 µM
[23] = second compound 0.0949 µM, first compound 3.16 µM
[24] = second compound 0.0949 µM, first compound 10 µM
[25] = second compound 0.3 µM, first compound 0.0316 µM
[26] = second compound 0.3 µM, first compound 0.1 µM
[27] = second compound 0.3 µM, first compound 0.316 µM
[28] = second compound 0.3 µM, first compound 1 µM
[29] = second compound 0.3 µM, first compound 3.16 µM
[30] = second compound 0.3 µM, first compound 10 µM
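Further: spheroids exposed to agents for 7 days.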
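Wherever viability, T/C is given: 100% = DMSO vehicle control viability.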

Row | Structure (SMILES) | IC50 (second compound 0.003 µM) [nM] | IC50 (second compound 0.00949 µM) [nM] | IC50 (second compound 0.03 µM) [nM] | IC50 (second compound 0.0949 µM) [nM] | IC50 (second compound 0.3 µM) [nM] | viability, T/C [1] [%] | viability, T/C [2] [%] | viability, T/C [3] [%] | viability, T/C [4] [%] | viability, T/C [5] [%] | viability, T/C [6] [%] | viability, T/C [7] [%] | viability, T/C [8] [%] | viability, T/C [9] [%] | viability, T/C [10] [%] | viability, T/C [11] [%] | viability, T/C [12] [%] | viability, T/C [13] [%] | viability, T/C [14] [%] | viability, T/C [15] [%] | also measured
1 | CC(C)n1c(=O)n(C)c2cnc3cc(F)c(-c4ccc(OCCCN5CCCCC5)nc4)cc3c21 + CC[C@@]1(O)C(=O)OCc2c1cc1n(c2=O)Cc2cc3c(CN(C)C)c(O)ccc3nc2-1 | < 31.6 | < 31.6 | < 31.6 | < 31.6 | < 31.6 | 14.6 | 10.4 | 7.7 | 6.29 | 8.79 | 4.08 | 6.58 | 4.04 | 3.89 | 3.22 | 3.36 | 2.89 | 5.67 | 4.26 | 4.37 | viability, T/C [16]: 4.1%; viability, T/C [17]: 5.65%; viability, T/C [18]: 2.47%; viability, T/C [19]: 7.71%; viability, T/C [20]: 4.71%; viability, T/C [21]: 4.3%; viability, T/C [22]: 3.67%; viability, T/C [23]: 6.89%; viability, T/C [24]: 2.28%; viability, T/C [25]: 2.08%; viability, T/C [26]: 2.15%; viability, T/C [27]: 1.84%; viability, T/C [28]: 1.73%; viability, T/C [29]: 1.54%; viability, T/C [30]: 1.56%
2 | CC1COCCN1c1cc(-c2ccnn2C)c2ccnc(-c3ccn[nH]3)c2n1 (stereo not given) + CC[C@@]1(O)C(=O)OCc2c1cc1n(c2=O)Cc2cc3c(CN(C)C)c(O)ccc3nc2-1 | < 31.6 | < 31.6 | < 31.6 | < 31.6 | < 31.6 | 37.4 | 15.3 | 6.14 | 6.78 | 6.36 | 6.21 | 14.2 | 6.19 | 4.31 | 5.51 | 5.57 | 5.81 | 4.2 | 2.9 | 3.2 | viability, T/C [16]: 4.33%; viability, T/C [17]: 5.76%; viability, T/C [18]: 6.29%; viability, T/C [19]: 2.84%; viability, T/C [20]: 1.97%; viability, T/C [21]: 2.32%; viability, T/C [22]: 4.06%; viability, T/C [23]: 4.81%; viability, T/C [24]: 4.72%; viability, T/C [25]: 1.36%; viability, T/C [26]: 1.31%; viability, T/C [27]: 1.46%; viability, T/C [28]: 1.77%; viability, T/C [29]: 2.51%; viability, T/C [30]: 3.29%
3 | COc1cc(C)[nH]c(=O)c1CN1CCc2c(Cl)cc(C(OC)C3COC3)c(Cl)c2C1=O (stereo not given) + CC[C@@]1(O)C(=O)OCc2c1cc1n(c2=O)Cc2cc3c(CN(C)C)c(O)ccc3nc2-1 | > 10000 | > 10000 | < 31.6 | < 31.6 | < 31.6 | 98.7 | 102 | 100 | 94.3 | 78.6 | 79.5 | 91 | 89.6 | 85.6 | 80.6 | 75.8 | 59.5 | 53.7 | 37.2 | 46.5 | viability, T/C [16]: 47.5%; viability, T/C [17]: 29.9%; viability, T/C [18]: 21.6%; viability, T/C [19]: 7.06%; viability, T/C [20]: 7.25%; viability, T/C [21]: 6.93%; viability, T/C [22]: 7.04%; viability, T/C [23]: 5.23%; viability, T/C [24]: 3.44%; viability, T/C [25]: 1.81%; viability, T/C [26]: 2.03%; viability, T/C [27]: 1.77%; viability, T/C [28]: 1.79%; viability, T/C [29]: 1.76%; viability, T/C [30]: 1.76%
4 | COc1ccc([C@@H](O)c2cc(-c3ncnc4cc(N5CCOCC5)ccc34)c(F)cc2Cl)nn1 + CC[C@@]1(O)C(=O)OCc2c1cc1n(c2=O)Cc2cc3c(CN(C)C)c(O)ccc3nc2-1 | 1690 | 1110 | < 31.6 | < 31.6 | < 31.6 | 103 | 103 | 72.1 | 60.2 | 40.6 | 17 | 89.7 | 78.7 | 72.4 | 47.9 | 35.1 | 14.9 | 45.5 | 45.6 | 37.8 | viability, T/C [16]: 24.5%; viability, T/C [17]: 15.1%; viability, T/C [18]: 11.2%; viability, T/C [19]: 8.69%; viability, T/C [20]: 6.08%; viability, T/C [21]: 5.64%; viability, T/C [22]: 5.51%; viability, T/C [23]: 3.85%; viability, T/C [24]: 4.39%; viability, T/C [25]: 1.88%; viability, T/C [26]: 1.38%; viability, T/C [27]: 1.37%; viability, T/C [28]: 1.12%; viability, T/C [29]: 0.65%; viability, T/C [30]: 0.57%
5 | [2H]c1nc(C)nc([2H])c1-c1cc(NC[C@@H](C)c2cccc3c(C(=O)NC)ccnc23)ncn1 + CC[C@@]1(O)C(=O)OCc2c1cc1n(c2=O)Cc2cc3c(CN(C)C)c(O)ccc3nc2-1 | 3450 | 3590 | < 31.6 | < 31.6 | < 31.6 | 93.9 | 83.5 | 76.7 | 74.5 | 47.7 | 31.4 | 76.2 | 60.4 | 72.9 | 63.8 | 53 | 25.5 | 39.5 | 32.2 | 36.2 | viability, T/C [16]: 28.3%; viability, T/C [17]: 20.5%; viability, T/C [18]: 9.7%; viability, T/C [19]: 6.85%; viability, T/C [20]: 5.79%; viability, T/C [21]: 4.9%; viability, T/C [22]: 6.11%; viability, T/C [23]: 2.84%; viability, T/C [24]: 3.55%; viability, T/C [25]: 1.6%; viability, T/C [26]: 1.7%; viability, T/C [27]: 1.43%; viability, T/C [28]: 1.44%; viability, T/C [29]: 1.47%; viability, T/C [30]: 1.38%
